Columns and labels:
[1] = In vitro metabolic stability in human liver microsomes; format: in vitro ADME; details: for CLint (L/h/kg) Human: Table S5; for CLint_u (L/h/kg) Human: Table S5, CLint/fu
Method: (§1) Isolated mouse (BD Gentest, Bedford, MA) and human liver microsomes (XenoTech, Kansas City, KS) ([Plant, 2004]) were added at a final concentration of 0.25 mg/ml to a solution containing 40 mM dibasic potassium phosphate and 10 mM monobasic potassium phosphate. Stock solutions of compounds at 5 mM were prepared in 100% DMSO. A 50:50 quenching solution of acetonitrile (ACN) and methanol (MeOH) was prepared. An NADPH solution was prepared at 10 mM. The preparations containing the microsomes were added to each well of the incubation plate (450 µl), which was then heated to 37°C for 10 min. The compounds were added to the respective wells of the test plate (2 µl). Then, 300 µl of the microsome preparation was added to each well of the test plate. The test plate was heated under gentle rotation for 5 min at 37°C. Next, 90 µl of the mixture contained in the test plate was added to the incubation plate, making a final volume of 540 µl. Samples were collected at the following incubation times: 0, 5, 10, 15, 20, and 30 min. To the 0 min sample plate, quenching solution (180 µl), NADPH (6 µl), and the incubation plate mixture (54 µl) were added to each well. The sample plate was then sealed, homogenized, and stored at 4°C. Then, 54 µl of the NADPH solution was added to the incubation plate, which was homogenized. Before the collection of each sample at the established times, 45 µl of the quenching solution was added to each well of the corresponding sample plates. After reaching the incubation times, 60 µl of the mixture contained in the incubation plate was added to the corresponding sample plates. The sample plates were then sealed and stored at 4°C. After the collection of the last sample (30 min), all sample plates were centrifuged at 3,800 rpm for 30 min. The supernatant from each well was collected and transferred to clean plates for mass spectrometry. Five to 10 µl of each sample was injected into an AB Sciex Triple Quad 5500 LC-MS/MS instrument.
(§2) For the biotransformation experiments and analysis of metabolites in microsomes, an Ultra-High-Pressure Liquid Chromatography instrument (UHPLC, Thermo Accela, Waltham, MA) ([Spaggiari et al., 2014]) connected to an automatic sample injector and a 1250 series pump was used. The UHPLC system was connected to a Thermo Fisher (Waltham, MA) LTQ Orbitrap mass spectrometer. For all other analyses, an AB Sciex Triple Quad 5500 coupled to a UHPLC equipped with a UV 1290 diode detector (Agilent Technologies, Santa Clara, CA) and a CTC PAL self-collecting system (LEAP Technologies, Carrboro, NC) was used. Q1 MS positive ion mode (300–500 Da) was used to detect the ions of the parent compounds. The UV detector was operated in spectral mode (250–280 nm). A Hypersil Gold C18 (2.1 mm × 100 mm, 1.9 µm, Thermo Fisher) HPLC column was used. The mobile phases were solvent A (0.1% formic acid in water) and solvent B (0.1% formic acid in ACN). The flow was adjusted to 0.55 ml/min, and the injection volume was adjusted to […]. The gradient started with 1% solvent B for 0.4 min, reached 40% (solvent B) in 2.3 min and 95% (solvent B) in 0.67 min, was maintained for 0.5 min, and returned to the initial condition of 1%. This condition was maintained for 1 min before injection of the next sample. The peak area ratio (peak area of the test compounds/peak area of the control compounds) was converted to the percentage of remaining compound, with the 0 min time point ratio set to 100%. T½ and CLint were calculated from the percentage of remaining compound versus the incubation time. From the resulting function, the slope (k) was determined. The equations T1/2 (min) = ln(2)/k and CLint in vitro (μL/min/mg) = k*1000/0.25 were used to determine T½ and CLint.

[2] = In vitro metabolic stability in mouse liver microsomes; format: in vitro ADME; details: for CLint (L/h/kg) Mouse: Table S5; for CLint_u (L/h/kg) Mouse: Table S5, CLint/fu
Method: as §1, §2

[3] = Fraction unbound by equilibrium dialysis; format: in vitro ADME; details: Table S5; fraction unbound
Method: The fraction unbound (fu) ([Masimirembwa et al., 2003]) of the test compounds was determined after incubation with different media, namely, plasma, microsomes, and buffer with 10% FCS. Equilibrium dialysis was performed in a 96-well plate (HT-Dialysis, Gales Ferry, CT) in which each well was divided by a semipermeable membrane (12–14 kDa cutoff). The test compounds diluted in either plasma, microsome suspension, or buffer were added to one side of the membrane. Potassium phosphate buffer (50 mM, pH 7.4) was added to the other side of the membrane. A standard curve was used to calculate the compound concentration (fu) on each side of the membrane. Stock solutions of each compound were prepared in 100% DMSO to obtain a final concentration of 1 mM. The following compound concentrations were used: 1, 2, 20, 200, 2,000 and 5,000 nM. To 500 μl of medium, 0.5 μl of the compound stock solution was added, and this was applied to one side of the well. Each compound was evaluated in triplicate. Next, the plate was assembled, sealed, and incubated at 37°C under rotation (150 rpm) for 4 h. After the incubation period, the plates were subjected to LC-MS/MS.

[4] = Cytotoxicity MTS assay in HFF-1 fibroblasts; format: cell-based; details: human HFF-1 fibroblasts
Method: The synthesized compounds were evaluated for their cytotoxicity against HFF-1 cells using the MTS assay (Promega, Madison, WI) ([Barltrop et al., 1991]) as previously described ([Ferreira et al., 2019]). HFF-1 fibroblasts were plated at 2 × 10^3/well in 96-well culture plates in RPMI 1640 without phenol red enriched with 10% FCS and incubated overnight at 37°C and 5% CO2. Next, 7 concentrations (0.1–100 µM) of the compounds were added in 3-fold serial dilutions, each concentration in triplicate, and the plates were incubated for 72 h at 37°C and 5% CO2. Next, 20 µl of MTS was added to each well, and the plates were incubated for an additional 4 h at 37°C and 5% CO2. The absorbance was measured at 490 nm using a spectrophotometer, and the data were transferred to SigmaPlot 10.0 (Systat Software Inc., Erkrath, Germany) to determine the IC50 values. Doxorubicin (Sigma–Aldrich) was used as a positive control, and untreated wells (100% growth) were used as negative controls in all plates. All compounds were tested in two independent assays.

Structure (SMILES) | CLint (L/h/kg) Human [1] [L/h/kg] | CLint_u (L/h/kg) Human [1] | CLint (L/h/kg) Mouse [2] [L/h/kg] | CLint_u (L/h/kg) Mouse [2] | fu [3] | IC50 at 72 h [4] [nM]
O=C(COc1cccc2ccccc12)NCCc1nc2ccccc2[nH]1 [Compound 44] | 23.80 | 70.62 L/h/kg | 504.00 | 1,495.55 L/h/kg | 0.34 | –
COc1cccc2c1C(=O)c1c(O)c3c(c(O)c1C2=O)C[C@@](O)(C(=O)CO)C[C@@H]3O[C@H]1C[C@H](N)[C@H](O)[C@H](C)O1 [Doxorubicin, reference compound] | – | – | – | – | – | 260
CC(=O)Nc1ccccc1OCC(=O)NCCc1nc2ccccc2[nH]1 [Compound 43] | 3.94 | 3.94 L/h/kg | 10.30 | 10.30 L/h/kg | 1.00 | –
Nc1ccccc1OCC(=O)NCCc1nc2ccccc2[nH]1 [Compound 42] | 3.91 | 4.64 L/h/kg | 24.80 | 29.45 L/h/kg | 0.84 | –
O=C(COc1ccccc1F)NCCc1nc2ccccc2[nH]1 [Compound 39] | 7.03 | 7.45 L/h/kg | 125.00 | 132.56 L/h/kg | 0.94 | –
O=C(COc1ccccc1I)NCCc1nc2ccccc2[nH]1 [Compound 41] | 39.40 | 62.44 L/h/kg | 683.00 | 1,082.41 L/h/kg | 0.63 | –
O=C(COc1ccc2ccccc2c1O)NCCc1nc2ccccc2[nH]1 [Compound 47] | – | 35.00 L/h/kg | 655.00 | 939.71 L/h/kg | 0.72 | –

The next lines start with results.

CLint (L/h/kg) Human [1] [L/h/kg] | CLint_u (L/h/kg) Human [1] | CLint (L/h/kg) Mouse [2] [L/h/kg] | CLint_u (L/h/kg) Mouse [2] | fu [3] | Structure (SMILES) | IC50 at 72 h [4] [nM]
40.40 | 2,104.17 L/h/kg | 50.10 | 2,609.38 L/h/kg | 0.02 | COc1ccc(C(=O)Cn2c(CCNC(=O)COc3ccc4ccccc4c3Br)nc3ccccc32)cc1 [Compound 63] | –
14.20 | 16.99 L/h/kg | 536.00 | 641.15 L/h/kg | 0.84 | O=C(CCOc1ccccc1)NCCc1c[nH]c2ccccc12 [Compound 58] | –
9.07 | 11.38 L/h/kg | 234.00 | 293.60 L/h/kg | 0.80 | O=C(CSc1ccccc1)NCCc1nc2ccccc2[nH]1 [Compound 48] | –
41.60 | 2,122.45 L/h/kg | 407.00 | – | 0.02 | O=C(COc1ccc2ccccc2c1Br)NCCc1nc2cc(Cl)ccc2[nH]1 [Compound 52] | –
65.00 | 1,334.7 L/h/kg | 528.00 | – | 0.05 | Cc1ccc2[nH]c(CCNC(=O)COc3ccc4ccccc4c3Br)nc2c1 [Compound 54] | –

Reference: publication PMC8767159, “Multiparameter Optimization of Trypanocidal Cruzain Inhibitors With In Vivo Activity and Favorable Pharmacokinetics” (Frontiers in Pharmacology, 2022)
